A word on the pKi: it is the negative decadic logarithm of the Ki, by convention in mol/L. Read a low pKi as a high Ki.

For 93 compounds, Ki results are on record in the kinase profiling compilation of Christmann-Franck et al. (2016).

pKi: −log10 of the molar value. Bounds are passed on as bounds.

Chain of SGK1 (human) (O00141 whole entry, looked up): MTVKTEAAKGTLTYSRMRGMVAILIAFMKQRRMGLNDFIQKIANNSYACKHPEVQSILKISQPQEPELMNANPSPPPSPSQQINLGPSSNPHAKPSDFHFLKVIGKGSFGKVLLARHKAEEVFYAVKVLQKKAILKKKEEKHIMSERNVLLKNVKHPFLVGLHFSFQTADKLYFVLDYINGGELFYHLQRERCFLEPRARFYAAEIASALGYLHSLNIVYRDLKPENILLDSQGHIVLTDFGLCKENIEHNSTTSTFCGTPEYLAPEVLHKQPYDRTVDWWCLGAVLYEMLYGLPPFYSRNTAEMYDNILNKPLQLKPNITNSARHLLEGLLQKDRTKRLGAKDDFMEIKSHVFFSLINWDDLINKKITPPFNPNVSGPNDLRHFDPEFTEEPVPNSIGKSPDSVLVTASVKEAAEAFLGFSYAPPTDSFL

This assay addresses SGK1 (human) (UniProt O00141). Briefly: Flashplate.
`C[C@@H](N)C1CCC(C(=O)Nc2ccncc2)CC1` (stereo partly drawn) had a pKi below 5.00. Regarding `CC(=O)N(c1ccncc1)c1c(N[C@H](C)C(C)(C)C)c(=O)c1=O`, the pKi was below 5.00. For `CN(C)S(=O)(=O)c1ccccc1-c1ccc2c(c1)Nc1ccccc1NC2=O` the value was below 5.00; for `O=c1c(NCc2ccccc2F)c(Nc2ccncc2)c1=O`, 6.10; for `Fc1ccc(-c2nc3cnccn3c2-c2ccnc(NCC3CC3)n2)cc1`, below 5.00. In turn, `Cc1cccc(Cl)c1-c1cccc2c(CCCOc3cccc4ccccc34)c(C(=O)NCCOCCOCCN)[nH]c12` showed a pKi below 5.00. For `Cc1ccc(-c2nn(C(C)(C)C)c3ncnc(N)c23)cc1` the value was below 5.00; for `O=c1[nH]c2cc(-c3ccccc3)cnc2[nH]1`, below 5.00; for `NC(=O)c1cc(-c2cccc(N)c2)cc2cccnc12`, below 5.00.

In the case of `NC(=O)c1cc2c(-c3ccc(F)cc3)cncc2s1`, the negative logarithm of the Ki (pKi) is 5.40. The same measure for `Cc1cc(C)cc(NC(=O)Nc2ccc(-c3c(C)sc4ncnc(N)c34)cc2)c1`: 5.10; for `NCCNS(=O)(=O)c1cccc(C(=O)Nc2ccc(-c3n[nH]c(=O)c4ccccc34)cc2)c1`: below 5.00; for `O=C1Nc2ccccc2Nc2nnccc21`: below 5.00. The same measure for `Cc1ccccc1NC(=O)Nc1ccc(NC(=O)c2csc3ncnc(N)c23)cc1`: below 5.00; for `Nc1ncnc2c1c(I)nn2[C@@H]1O[C@H](CO)[C@@H](O)[C@H]1O`: below 5.00; for `CNC(=O)/C=C/c1cnc(N)c2c(-c3ccc4sc(C)nc4c3)csc12`: below 5.00. For `Clc1ccc(CNc2ccc3nnc(-c4ccccc4)n3n2)cc1` the value was below 5.00. `CCN(CC)CCNC(=O)/C=C/c1cnc(N)c2c(-c3ccc(NC(=O)Nc4cccc(C)c4)cc3)csc12` gave a pKi of 5.70. For `Nc1ncnc2scc(C(=O)Nc3ccc(NC(=O)Nc4ccccc4)cc3)c12` the value was below 5.00; for `COc1ccc2c(NC(=O)Nc3cccc(C(F)(F)F)n3)ccnc2c1`, below 5.00; for `Nc1ncc(-c2cnn(CCO)c2)c2scc(-c3ccc(NC(=O)Nc4cccc(F)c4)cc3)c12`, 5.60. For `NC(=O)c1cccc2[nH]c(-c3ccc(C4CCCNC4)cc3F)nc12` (stereo not drawn) the value was below 5.00; for `Cc1cn2c(-c3ccnc(NCC(C)(C)CO)n3)c(-c3ccc(F)cc3F)nc2c(C)n1`, below 5.00.

In turn, `CC(=O)Nc1cccc(CNc2c(Nc3ccc4[nH]ncc4c3)c(=O)c2=O)c1` gave a pKi of 6.80.

As to `OCC(CO)Nc1ncnc2[nH]cc(-c3ccccc3)c12`, the negative-log Ki (pKi) was 5.10. For `Cc1nc2ccccn2c1-c1csc(Nc2ccc(O)cc2)n1` the value was below 5.00; for `C(=N\Nc1nc2ccccc2[nH]1)/c1c[nH]c2ccccc12`, below 5.00; for `Cc1cccc(-c2c(-c3ccncc3)nc(NC[C@@H](N)Cc3ccccc3)n(C)c2=O)c1`, below 5.00.

`CCCOc1cccc([C@@H](C)NC(=O)c2ccc(-c3ccncc3)cc2)c1` gave a pKi of 5.40. For `NCCC(C(=O)Nc1ccc2[nH]ncc2c1)c1ccc(Cl)c(Cl)c1` (stereo not drawn) the value was 7.70; for `Cc1cccc(NC(=O)Nc2ccc(-c3csc4ncnc(N)c34)cc2)c1`, below 5.00. With `CS(=O)(=O)NCCOc1cncc(-c2ccc3cnccc3c2)c1`, the negative logarithm of the Ki (pKi) was 5.40. The same measure for `NC(=O)c1cc(-c2ccnc(N)n2)[nH]c1-c1ccc(Cl)cc1F`: 5.40; for `Cc1cccc(NC(=O)Nc2ccc(-c3cccc(C(N)=O)c3)cc2)c1`: below 5.00; for `NC(=O)c1cc2c(-c3cccc(F)c3)cncc2s1`: 5.50. The same measure for `COC(=O)c1c(-c2ccc(NC(=O)Nc3ccccc3)cc2)c2c(N)ncnn2c1C`: 6.20; for `O=C1NN=Cc2c[nH]c3cc(NC(=O)[C@@H]4C[C@H]4c4ccccc4)cc1c23`: 7.40.

With `O=C1Cc2c([nH]c3ccc(Br)cc23)-c2ccccc2N1`, the pKi was below 5.00.

Compound `COc1cc(-c2ccc3c(c2)NC(=O)c2ccc(-c4ccccc4NS(C)(=O)=O)cc2N3)cc(OC)c1OC` showed a pKi below 5.10.

In turn, `CCOC(=O)C1=c2s/c(=C/c3ccco3)c(=O)n2C(N)=C(C#N)C1c1ccco1` (stereo not drawn) showed a pKi below 5.00. Take `Nc1n[nH]c2cccc(-c3ccc(Br)cc3)c12`: the negative-log Ki (pKi) is 5.30. The same measure for `COCCn1cc(-c2ccncn2)c(-c2ccc(Cl)cc2)n1`: below 5.00; for `CNC(=O)c1ccccc1Nc1nc(Nc2ccc(N3CCOCC3)cc2OC)ncc1Cl`: below 5.10.

For the compound `Cn1cncc1C(OCc1c(-c2ccc(OC(F)(F)F)cc2)cc(C#N)c(=O)n1C)c1ccc(C#N)cc1` (stereo not drawn), the pKi is below 5.00.

Regarding `Clc1cc(-c2c[nH]c3ncccc23)nc(NC2CCCCC2)n1`, the pKi was 6.10.

Take `CN(c1ncccc1CNc1nc(Nc2ccc3c(c2)CC(=O)N3)ncc1C(F)(F)F)S(C)(=O)=O`: the negative-log Ki (pKi) was 5.60.

For `CN(C)CC(C)(C)CNc1nccc(-c2c(-c3ccc(F)cc3)nc3occn23)n1`, the pKi is below 5.00. In turn, `Cc1ccccc1NC(=O)Nc1ccc(-c2coc3ncnc(N)c23)cc1` had a negative logarithm of the Ki (pKi) of 5.60.

`CS(=O)(=O)Nc1cc2c(cc1Cl)NC(=O)Nc1cnc(C#N)c(n1)OCCCCCO2` showed a negative logarithm of the Ki (pKi) below 5.00. The same measure for `CCCn1cc(-c2cnc(N)c3c(-c4ccc(NC(=O)Nc5cccc(F)c5)cc4)csc23)cn1`: below 5.00; for `CC(C)=C(C)c1cccc2c(CCCOc3cccc(Cl)c3Cl)c(C(=O)O)[nH]c12`: below 5.00.

Consider `O=C(NC(CO)Cc1ccc(Cl)cc1)c1ccc(-c2ccncc2)cc1` (stereo not drawn), for which the pKi was below 5.00. Regarding `CC(C)(C)OC(=O)n1ncc2cc(Nc3c(NCc4ccc(S(N)(=O)=O)cc4)c(=O)c3=O)ccc21`, the negative-log Ki (pKi) was below 5.00. For `Nc1ncc(-c2ccoc2)c2scc(-c3ccc(NC(=O)Nc4ccccc4F)cc3)c12` the value was below 5.00; for `Cn1c(=O)c(Oc2ccc(F)cc2F)cc2cnc(NC3CCOCC3)nc21`, below 5.00; for `C[C@@H](NC(=O)c1ccc(-c2ccncc2)cc1)c1ccccc1`, 5.70. The same measure for `Cc1cccc(NC(=O)Nc2ccc(-c3csc4c(-c5cnn(C[C@@H](C)O)c5)cnc(N)c34)cc2)c1`: below 5.00. For `CCN1CCN(c2ccc(Nc3nccc(-c4c(-c5cccc(C(=O)Nc6ccccc6F)c5)nc5ccccn45)n3)cc2)CC1` the value was 5.20; for `Cc1cc2cc(-c3csc4c(-c5cccc(S(C)(=O)=O)c5)cnc(N)c34)ccc2[nH]1`, below 5.00; for `CN1CCN(Cc2ccc3c(c2)Cc2c(-c4csc(C#CCOCC5CC5)c4)n[nH]c2-3)CC1`, below 5.00. Take `Oc1ccc(-c2n[nH]c(Nc3cccc(Cl)c3)c2-c2ccc(O)cc2)cc1`: the pKi is 6.20. For `O=c1[nH]c2sc3c(c2c2nc(-c4ccncc4)nn12)CCCC3` the value was below 5.00. For `Cc1cccc(C2(c3cccc(C)c3)CC2C(=O)Nc2ccncc2)c1` (stereo not drawn) the value was below 5.00; for `CN(C)CC(=O)N[C@H](COc1cncc(-c2ccc3cnccc3c2)c1)Cc1c[nH]c2ccccc12`, 5.10; for `Fc1ccc(-c2nc(-c3ccc(F)cc3)c(-c3ccncc3)[nH]2)cc1`, below 5.00.

As to `Cc1ccccc1NC(=O)Nc1ccc2c(c1)CCc1sc3ncnc(N)c3c1-2`, the negative-log Ki (pKi) is below 5.00.

As to `COc1cc(/C=C2\SC(=O)NC2=O)ccc1O`, the negative logarithm of the Ki (pKi) was 5.40. The same measure for `CC[C@@H]1C(=O)N(C)c2cnc(Nc3ccc(C(=O)NC4CCN(C)CC4)cc3OC)nc2N1C1CCCC1`: below 5.00; for `Cc1ccc(-n2nc(C)c3c(=O)c4cc(Cl)ccc4n(O)c32)cc1`: below 5.00; for `CCc1cccc(NC(=O)Nc2ccc3c(c2)CCc2sc4ncnc(N)c4c2-3)c1`: below 5.00. The same measure for `N[C@H](COc1cncc(/C=C/c2ccncc2)c1)Cc1ccccc1`: below 5.00. For `CC(C)(CO)CNc1nccc(-c2c(-c3ccc(F)cc3)nc3c(CCN)nccn23)n1` the value was below 5.00; for `CSc1ccc2nc3c(c(Cl)c2c1)CCNC3=O`, below 5.00; for `COC(=O)c1ccccc1-c1ccc2c(c1)Nc1ccccc1NC2=O`, below 5.00. As for `CCN(CCCOc1ccc2c(Nc3cc(CC(=O)Nc4cccc(F)c4)[nH]n3)ncnc2c1)CCOP(=O)(O)O`, the negative logarithm of the Ki (pKi) was below 5.20. For `NCCCOc1cc2c(c(-c3ccc(Nc4nc5ccc(Cl)cc5o4)cc3)c1)CNC2=O` the value was 5.30; for `COc1cccc([C@@H](C)NC(=O)c2ccc(-c3ccncc3)c(F)c2)c1`, 6.50; for `CCOC(=O)c1cn(-c2ccc(O)cc2C)c2cc(-c3ccncc3)ccc2c1=O`, below 5.00. For `COc1cccc([C@@H](C)NC(=O)N2CC=C(c3c[nH]c4ncccc34)CC2)c1` the value was 7.70; for `Nc1ncnc2c1c(-c1cccc(OCc3ccccc3)c1)cn2[C@H]1C[C@H](CN2CCCC2)C1`, below 5.00. For `COc1ccc(NC(=O)Nc2ccc(-c3cccc4onc(N)c34)cc2)cc1Cl` the value was below 5.00; for `O=c1[nH]c2sc3c(c2c2nc(-c4cccnc4)nn12)CCCC3`, below 5.00; for `CN(C)CCCC(=O)Nc1n[nH]c2nnc(-c3cccc(F)c3F)cc12`, below 5.00. For the compound `COCCO[C@H]1CC[C@H](n2nc(-c3ccc(Nc4nc5cc(C)cc(Cl)c5o4)cc3)c3c(N)ncnc32)CC1`, the pKi was below 5.00.

Compound `COc1cc(/C=C(\C#N)c2nc3ccccc3[nH]2)c(Br)cc1O` had a pKi of 5.20.

With `OCCNc1cc2cc(-c3ccsc3)ccc2cn1`, the pKi is 6.30. This pKi lies 1.10 log units higher than the previous one. For `Nc1ccc(-c2cncc(OC[C@@H](N)Cc3c[nH]c4ccccc34)c2)cc1C(=O)c1cccc(Cl)c1` the value was below 5.00; for `CCCCNc1ccc2c3c(cccc13)C(=O)N(CCNCCO)C2=O`, below 5.00; for `Cc1ccc(C(=O)Nc2c(C(N)=O)sc3ccc(Cl)c(Cl)c23)cc1`, 5.50.

As for `O=C1NCCc2[nH]c(-c3ccnc(-c4cnc5ccccc5c4)c3)cc21`, the negative-log Ki (pKi) is below 5.00. The same measure for `CCC(N)(C#Cc1cnc(N)c2c(-c3ccc(NC(=O)Nc4cccc(C)c4)cc3)csc12)CC`: 5.40. `O=C(NCc1ccc(Cl)cc1)Nc1cccc2[nH]ncc12`: the negative-log Ki (pKi) was below 5.00. For `CC(C)(CO)c1nnc2ccc(-c3c(-c4ccc(F)cc4F)nc4occn34)nn12` the value was below 5.00.
